Test results taken from article PMC10182713 (South African Journal of Botany, 2023).
In brackets after ≈: the same amount, converted by molar mass.

Key:
[1] = test system: M. tuberculosis H37RV (ATCC 27294); experiment: microbe, parasite or virus in culture; assay type: cell-based, Mycobacterium tuberculosis; conditions: for MIC: Mycobacterium tuberculosis, ATCC27294|H37RV, read-out: MIC M. tb H37Rv
[2] = test system: Mycobacterium smegmatis (ATCC 1441); experiment: microbe, parasite or virus in culture; assay type: cell-based; conditions: for MIC: Mycolicibacterium smegmatis, ATCC1441, 24 h, read-out: MIC M. smegmatis
M. bovis (ATCC 27290) = experiment: microbe, parasite or virus in culture; assay type: cell-based, Mycobacterium bovis; conditions: for MIC: Mycobacterium tuberculosis variant bovis, ATCC27290, read-out: MIC M. bovis
[3] = test system: pathogenic and non-pathogenic Mycobacterium strains; assay type: cell-based
Vero monkey kidney cells = assay type: cell-based
in vitro = conditions: human, Cell viability of HepG2 cells treated with the toxicant alone
M. aurum (NCTC 10437) = experiment: microbe, parasite or virus in culture; assay type: cell-based, Mycobacterium aurum; conditions: Mycolicibacterium aurum, NCTC10437, read-out: MIC M. aurum
M. fortuitum (ATCC 6841) = experiment: microbe, parasite or virus in culture; assay type: cell-based, Mycobacterium fortuitum; conditions: Mycolicibacterium fortuitum, ATCC6841, 24 h, read-out: MIC M. fortuitum
HepG2 liver cells = conditions: human
HepG2 cells = conditions: tert-butyl hyperoxide induced-toxicity on HepG2 cells; ref Kim et al. (2011); cited from earlier work
Mycobacterium = conditions: antimycobacterial activity; ref Boonphong et al., 2007; cited from earlier work
Caco-2 cells = assay type: cell-based, human
C3A cells = assay type: cell-based

For 4′-methoxykaempferol, the “MIC M. tb H37Rv” value [1] was 125 µg/mL, the “MIC M. smegmatis” value [2] was 250 µg/mL and the “MIC M. bovis” value (M. bovis (ATCC 27290)) was 125 µg/mL. For the same molecule, the “Antimycobacterial activity in words” value [3] was “weak”.
`CO[C@H]1/C=C/O[C@@]2(C)Oc3c(C)c(O)c4c(O)c(c(/C=N/N5CCN(C)CC5)c(O)c4c3C2=O)NC(=O)/C(C)=C\C=C\[C@H](C)[C@H](O)[C@@H](C)[C@@H](O)[C@@H](C)[C@H](OC(C)=O)[C@@H]1C` [Rif (+ve con), rifampicin, reference compound] gave an MIC [1] of 0.24 µg/mL (≈ 0.292 µM), an MIC [2] of 3.9 µg/mL (≈ 4.74 µM) and an MIC (M. bovis (ATCC 27290)) of 4 µg/mL (≈ 4.86 µM). The “Selectivity index LC50/MIC M. aurum” value (Vero monkey kidney cells) was 23.500, the “Selectivity index LC50/MIC M. bovis” value (Vero monkey kidney cells) was 23.500 and the “Selectivity index LC50/MIC M. fortuitum” value (Vero monkey kidney cells) was 1.492. For the same molecule, the “Selectivity index LC50/MIC M. smegmatis” value (Vero monkey kidney cells) was 24.103, the “Selectivity index LC50/MIC M. tb H37RV” value (Vero monkey kidney cells) was over 100 and the viability (in vitro) was 65%. The MIC (M. aurum (NCTC 10437)) was 4 µg/mL (≈ 4.86 µM), the MIC (M. fortuitum (ATCC 6841)) was 63 µg/mL (≈ 76.6 µM) and the “Cell viability of HepG2 cells treated with the toxicant alone” value (HepG2 liver cells) was 65.27±0.184%.
In the case of `O=c1c(O[C@@H]2O[C@H](CO)[C@@H](O)[C@H](O)[C@H]2O)c(-c2ccc(O)c(O)c2)oc2cc(O)cc(O)c12` [hirsutrin], the “Hepatoprotective activity in words” value (HepG2 cells) is given as “significant hepatoprotective activity”.
For `O=c1c(O)c(-c2ccc(O)c(O)c2)oc2cc(O)cc(O)c12` [quercetin], the “Hepatoprotective activity in words” value (HepG2 cells) is given as “significant hepatoprotective activity”.
For `O=c1c(O[C@@H]2O[C@@H](CO)[C@H](O)[C@H]2O)c(-c2ccc(O)c(O)c2)oc2cc(O)cc(O)c12` [avicularin], the “Hepatoprotective activity in words” value (HepG2 cells) is given as “significant hepatoprotective activity”.
For `COc1cc2oc(-c3ccc(O)cc3O)c(CC=C(C)C)c(=O)c2c(O)c1/C=C/C(C)C` [artocarpin], the MIC (Mycobacterium) is given as 3 µg/mL (≈ 6.87 µM).
For chaplashin, the MIC (Mycobacterium) is listed as 3 µg/mL.
`COc1ccc(C2CC(=O)c3c(OC)cc(OC)cc3O2)cc1` (stereo not drawn) [5,7,4′-trimethoxy flavanone] gave an MIC [1] of 31 µg/mL (≈ 98.6 µM), an MIC [2] of 63 µg/mL (≈ 200 µM) and an MIC (M. bovis (ATCC 27290)) of 63 µg/mL (≈ 200 µM). The “Selectivity index LC50/MIC M. bovis” value (Caco-2 cells) was 3.175, the “Selectivity index LC50/MIC M. fortuitum” value (Caco-2 cells) was 3.175 and the “Selectivity index LC50/MIC M. smegmatis” value (Caco-2 cells) was 3.175. The “Selectivity index LC50/MIC M. tb H37RV” value (Caco-2 cells) was 6.452, the “Selectivity index LC50/MIC M. bovis” value (Vero monkey kidney cells) was 3.206 and the “Selectivity index LC50/MIC M. fortuitum” value (Vero monkey kidney cells) was 3.206. For the same molecule, the “Selectivity index LC50/MIC M. smegmatis” value (Vero monkey kidney cells) was 3.206, the “Selectivity index LC50/MIC M. bovis” value (C3A cells) was 3.174 and the “Selectivity index LC50/MIC M. fortuitum” value (C3A cells) was 3.174. For the same molecule, the “Selectivity index LC50/MIC M. smegmatis” value (C3A cells) was 3.174, the “Selectivity index LC50/MIC M. tb H37RV” value (C3A cells) was 6.452 and the “Antimycobacterial activity in words” value [3] was “good activity”. The MIC (M. fortuitum (ATCC 6841)) was 63 µg/mL (≈ 200 µM) and the “Percentage hepatoprotective activity (cell viability)” value (HepG2 liver cells) was 85.674±0.0618%.
`COc1ccc(-c2oc3cc(OC)cc(O)c3c(=O)c2OC)cc1` [5‑hydroxy-3,7,4′-trimethoxyflavone] gave an MIC [1] of 63 µg/mL (≈ 192 µM), an MIC [2] of 63 µg/mL (≈ 192 µM) and an MIC (M. bovis (ATCC 27290)) of 63 µg/mL (≈ 192 µM). The “Selectivity index LC50/MIC M. bovis” value (Caco-2 cells) was 2.524, the “Selectivity index LC50/MIC M. fortuitum” value (Caco-2 cells) was 2.524 and the “Selectivity index LC50/MIC M. smegmatis” value (Caco-2 cells) was 2.524. For the same molecule, the “Selectivity index LC50/MIC M. tb H37RV” value (Caco-2 cells) was 2.524, the “Selectivity index LC50/MIC M. fortuitum” value (Vero monkey kidney cells) was 3.127 and the “Selectivity index LC50/MIC M. smegmatis” value (Vero monkey kidney cells) was 3.127. For the same molecule, the “Selectivity index LC50/MIC M. tb H37RV” value (Vero monkey kidney cells) was 3.127, the “Selectivity index LC50/MIC M. bovis” value (C3A cells) was 3.174 and the “Selectivity index LC50/MIC M. fortuitum” value (C3A cells) was 3.174. For the same molecule, the “Selectivity index LC50/MIC M. smegmatis” value (C3A cells) was 3.174, the “Selectivity index LC50/MIC M. tb H37RV” value (C3A cells) was 3.174 and the “Antimycobacterial activity in words” value [3] was “good activity”. For the same molecule, the MIC (M. fortuitum (ATCC 6841)) was 63 µg/mL (≈ 192 µM) and the “Percentage hepatoprotective activity (cell viability)” value (HepG2 liver cells) was 89.277±0.023%.
Molecule `[H]/N=C(/N)N[C@H]1[C@H](O)[C@@H](O)[C@H](O[C@@H]2O[C@@H](C)[C@](O)(C=O)[C@H]2O[C@@H]2O[C@@H](CO)[C@H](O)[C@@H](O)[C@@H]2NC)[C@@H](N/C(N)=N\[H])[C@@H]1O` [Strep (+ve con), streptomycin, reference compound] has an MIC [1] of 0.24 µg/mL (≈ 0.413 µM), an MIC [2] of 3.9 µg/mL (≈ 6.71 µM) and an MIC (M. bovis (ATCC 27290)) of 4 µg/mL (≈ 6.88 µM). For the same molecule, the MIC (M. aurum (NCTC 10437)) was 4 µg/mL (≈ 6.88 µM) and the MIC (M. fortuitum (ATCC 6841)) was over 1000 µg/mL.
